Source: article PMC3543868 (Cell reports, 2012)

Target: GroEL in complex with its cofactor GroES (Escherichia coli, UniProt P0A6F5)
Details: with GroES (singly capped); no AlFx; labelled compound

GroEL in complex with its cofactor GroES, sequence (P0A6F5 2-548): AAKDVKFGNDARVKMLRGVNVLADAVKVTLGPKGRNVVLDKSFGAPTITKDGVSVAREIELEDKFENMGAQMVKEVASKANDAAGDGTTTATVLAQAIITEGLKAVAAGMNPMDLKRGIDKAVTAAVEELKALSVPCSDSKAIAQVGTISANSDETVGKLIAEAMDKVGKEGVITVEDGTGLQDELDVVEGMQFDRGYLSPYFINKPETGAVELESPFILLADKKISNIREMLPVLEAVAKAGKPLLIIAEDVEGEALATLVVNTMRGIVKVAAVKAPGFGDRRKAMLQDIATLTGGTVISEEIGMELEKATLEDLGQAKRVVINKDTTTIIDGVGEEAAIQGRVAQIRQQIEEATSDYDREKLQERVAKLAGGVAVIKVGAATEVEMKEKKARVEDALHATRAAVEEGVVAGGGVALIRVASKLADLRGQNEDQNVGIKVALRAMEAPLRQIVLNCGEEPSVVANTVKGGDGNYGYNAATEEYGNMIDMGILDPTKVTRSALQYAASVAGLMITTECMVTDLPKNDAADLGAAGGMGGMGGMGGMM
GroEL in complex with its cofactor GroES, sequence (P0A6F9 whole entry, further chain): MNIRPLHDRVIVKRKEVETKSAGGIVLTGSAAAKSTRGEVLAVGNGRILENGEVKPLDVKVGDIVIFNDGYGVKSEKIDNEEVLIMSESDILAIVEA

Structure (SMILES): Nc1ncnc2c1ncn2[C@@H]1O[C@H](COP(=O)(O)OP(=O)(O)OP(=O)(O)O)[C@@H](O)[C@H]1O [ATP]
- nucleotides per GroEL 14-mer: ~ 7 nucleotides per GroEL 14-mer
